In patent US11667606B2, “Thyromimetics” (Autobahn Therapeutics, Inc., priority 2019, dated 2023) one finds EC50 data, which are given here for 15 compounds.

This assay deals with T1, TRβ (Homo sapiens, UniProt P10828).
T1 construct: expressed in transfected cells; host or cells: HEK293
T1 sequence (P10828 217-461 limits assumed): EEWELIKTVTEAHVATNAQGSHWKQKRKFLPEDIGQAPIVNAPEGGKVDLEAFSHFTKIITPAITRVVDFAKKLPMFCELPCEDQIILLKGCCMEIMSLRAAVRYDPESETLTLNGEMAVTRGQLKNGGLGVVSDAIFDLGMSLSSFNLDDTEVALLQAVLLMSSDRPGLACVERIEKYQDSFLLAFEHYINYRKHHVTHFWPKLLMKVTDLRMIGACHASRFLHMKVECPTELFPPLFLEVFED
Kind of assay: Thyroid-hormone reporter-gene assay, TRβ (Gal4 DBD hybrid, luciferase, HEK293). The class given is cell-based. The conditions noted are these: reporter cells derived from HEK293, 24 hr incubation, luciferase readout. The method, then:
Compounds were tested for thyroid-hormone receptor activity using TR reporter-gene assays. Reporter cells used in the assays express a TR-receptor hybrid (either TRα or TRβ) in which the native N-terminal DNA binding domain (DBD) has been replaced with that of the yeast Gal4 DBD. The reporter gene, firefly luciferase, is functionally linked to the Gal4 upstream activation sequence (UAS). Both cell lines were derived from human embryonic kidney (HEK293).
A suspension of reporter cells was prepared in cell recovery medium containing 10% charcoal-stripped FBS, and dispensed into assay plates. The plates were pre-incubated for 6 hours in a cell culture incubator (37° C./5% CO2/85% humidity).
These intermediate stocks were subsequently diluted directly into compound screening medium containing 10% charcoal-stripped FBS to generate “2×-concentration” treatment media (containing 0.2, 0.4 or 0.8% DMSO).
At the end of the pre-incubation period, culture media were discarded from the assay plates, and all wells received 100 μl of compound screening medium. 100 μl of each of the previously prepared “2×-concentration” treatment media were dispensed into duplicate assay wells, thereby achieving the desired final treatment concentrations. The final concentration of DMSO in all assay wells was 0.1, 0.2 or 0.4%. Assay plates were incubated for 24 hr in a cell culture incubator (37° C./5% CO2/85% humidity).
At the 24 h assay endpoint, treatment media were discarded and […] of luciferase detection reagent was added. Relative luminometer units (RLUs) were quantified from each assay well.
One may read the EC50 as the concentration at which the effect is half-maximal. High values mean weaker potency, low ones greater potency. Regarding `CCOC(=O)c1cccc(-c2cc(Cc3c(Cl)cc(OCC(=O)O)cc3Cl)ccc2O)c1` [Compound 6, 2-(3,5-dichloro-4-((3′-(ethoxycarbonyl)-6-hydroxy-[1,1′-biphenyl]-3-yl)methyl)phenoxy)acetic Acid], the EC50 is > 1000 nM.
The result for `O=C(O)COc1cc(Cl)c(Cc2ccc(O)c(-c3cccc(CO)c3)c2)c(Cl)c1` [Compound 8, 2-(3,5-dichloro-4-((6-hydroxy-3′-(hydroxymethyl)-[1,1′-biphenyl]-3-yl)methyl)phenoxy)acetic Acid] reads > 1000 nM; that for `CC(=O)Nc1cccc(-c2cc(Cc3c(Cl)cc(OCC(=O)O)cc3Cl)ccc2O)c1` [Compound 9, 2-(4-((3′-acetamido-6-hydroxy-[1,1′-biphenyl]-3-yl)methyl)-3,5-dichlorophenoxy)acetic Acid], > 1000 nM.
The result for `CS(=O)(=O)c1cccc(-c2cc(Cc3c(Cl)cc(OCC(=O)O)cc3Cl)ccc2O)c1` [Compound 14, 2-(3,5-dichloro-4-((6-hydroxy-3′-(methylsulfonyl)-[1,1′-biphenyl]-3-yl)methyl)phenoxy)acetic Acid] reads > 1000 nM.
As to `COCc1cccc(-c2cc(Cc3c(Cl)cc(OCC(=O)O)cc3Cl)ccc2O)c1` [Compound 15, 2-(3,5-dichloro-4-((6-hydroxy-3′-(methoxymethyl)-[1,1′-biphenyl]-3-yl)methyl)phenoxy)acetic Acid], the EC50 is > 1000 nM.
The same measure for `O=C(O)COc1cc(Cl)c(Cc2ccc(O)c(-c3cccc(C(F)(F)C(F)(F)F)c3)c2)c(Cl)c1` [Compound 28, 2-(3,5-dichloro-4-((6-hydroxy-3′-(perfluoroethyl)-[1,1′-biphenyl]-3-yl)methyl)phenoxy)acetic Acid]: > 1000 nM.
For `O=C(O)COc1cc(Cl)c(Cc2ccc(O)c(-c3ccc(C(F)(F)F)s3)c2)c(Cl)c1` [Compound 37], the EC50 was > 1000 nM.
The same measure for `Cc1ccoc1-c1cc(Cc2c(Cl)cc(OCC(=O)O)cc2Cl)ccc1O` [Compound 44, 2-(3,5-dichloro-4-(4-hydroxy-3-(3-methylfuran-2-yl)benzyl)phenoxy)acetic Acid]: > 1000 nM; for `O=C(O)COc1cc(Cl)c(Cc2ccc(O)c(-c3ccc(F)c(C(F)(F)F)c3)c2)c(Cl)c1` [Compound 48, 2-(3,5-dichloro-4-((4′-fluoro-6-hydroxy-3′-(trifluoromethyl)-[1,1′-biphenyl]-3-yl)methyl)phenoxy)acetic acid]: > 1000 nM; for `O=C(O)COc1cc(Cl)c(Cc2ccc(O)c(-c3cc(F)cc(C(F)(F)F)c3)c2)c(Cl)c1` [Compound 50, 2-(3,5-dichloro-4-((3′-fluoro-6-hydroxy-5′-(trifluoromethyl)-[1,1′-biphenyl]-3-yl)methyl)phenoxy)acetic Acid]: 100 to 1000 nM.
The result for `O=C(O)COc1cc(Cl)c(Cc2ccc(O)c(-c3ccc(F)c(OC(F)F)c3)c2)c(Cl)c1` [Compound 55, 2-(3,5-dichloro-4-((3′-(difluoromethoxy)-4′-fluoro-6-hydroxy-[1,1′-biphenyl]-3-yl)methyl)phenoxy)acetic Acid] reads > 1000 nM; that for `N#Cc1ccc(Cc2cc(Cc3c(Cl)cc(OCC(=O)O)cc3Cl)ccc2O)cc1` [Compound 80, 2-(3,5-dichloro-4-(3-(4-cyanobenzyl)-4-hydroxybenzyl)phenoxy)acetic Acid], > 1000 nM; that for `Cc1ccc(Cc2cc(Cc3c(Cl)cc(OCC(=O)O)cc3Cl)ccc2O)cc1` [Compound 92, 2-(3,5-dichloro-4-(4-hydroxy-3-(4-methylbenzyl)benzyl)phenoxy)acetic Acid], > 1000 nM.
As for `O=C(O)COc1cc(Cl)c(Cc2ccc(O)c(Cc3cncnc3)c2)c(Cl)c1` [Compound 94, 2-(3,5-dichloro-4-(4-hydroxy-3-(pyrimidin-5-ylmethyl)benzyl)phenoxy) acetic Acid], the EC50 was > 1000 nM.
The same measure for `O=C(O)COc1cc(Cl)c(Cc2ccc(O)c(Cc3ccc(CC(F)(F)F)cc3)c2)c(Cl)c1` [Compound 96, 2-(3,5-dichloro-4-(4-hydroxy-3-(4-(2,2,2-trifluoroethyl)benzyl)benzyl)phenoxy)acetic Acid]: > 1000 nM.
